Experimental data reported in patent publication US20130217634A1, “PEPTIDES ABLE TO INTERFERE WITH THE INHIBITING ACTIVITY OF MDM2/MDM4 HETERODIMER TOWARDS P53 AND USE THEREOF FOR CANCER TREATMENT” (UNIVERSITA' DEGLI STUDI DI PERUGIA, priority 2012, published 2013).
*: point of attachment. FITC = O=C1OC2(c3ccc(O)cc3Oc3cc(O)ccc32)c2ccc(NC(=S)*)cc21; Ahx = NCCCCCC(=O)O

Tests used:
recombinant GST-MDM2 = molecular target: T1, recombinant GST-MDM2 (Homo sapiens, UniProt Q00987); test: In vitro ubiquitination assay of p53 performed by recombinant GST-MDM2; format: biochemical
T1 construct: GST (N)
T1 sequence (Q00987 whole entry): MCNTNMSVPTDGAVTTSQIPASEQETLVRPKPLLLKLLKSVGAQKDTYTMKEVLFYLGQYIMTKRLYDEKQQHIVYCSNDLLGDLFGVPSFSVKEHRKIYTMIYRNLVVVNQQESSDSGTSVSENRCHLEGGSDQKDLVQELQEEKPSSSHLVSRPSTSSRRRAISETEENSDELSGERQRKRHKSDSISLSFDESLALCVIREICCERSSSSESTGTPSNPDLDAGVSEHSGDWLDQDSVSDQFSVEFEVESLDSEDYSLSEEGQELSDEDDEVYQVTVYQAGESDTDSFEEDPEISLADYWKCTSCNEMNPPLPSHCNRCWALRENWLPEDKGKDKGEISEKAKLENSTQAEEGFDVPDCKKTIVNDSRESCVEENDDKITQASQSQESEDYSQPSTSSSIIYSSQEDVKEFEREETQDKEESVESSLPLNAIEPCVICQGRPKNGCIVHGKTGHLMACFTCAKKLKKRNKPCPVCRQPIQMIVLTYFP
Text: (§1) Further experiments have been performed to define the role of peptide 3 composition in its molecular and biological activity. […] Supporting these new experimental data about the importance of Isoleucine 489 and Phenylalanine 488, molecular dynamic simulations have shown that these residues engage in specific hydrophobic and aromatic interactions with MDM2 (FIG. 11). In particular, Isoleucine 489 is harbored in a hydrophobic cleft composed of Alanine 434, Isoleucine 435 and Leucine 458 of MDM2 protein. Likewise, Phenylalanine 488 forms aromatic interactions with a Histidine residue (HID-457) of MDM2 protein.

[1] = test system: HCT116 wt and p53−/− cells; test: TUNEL assay of apoptosis in cells transfected with FITC tagged peptides; format: cell-based; details: among transfected (green) cells
Procedure: In order to specifically detect apoptotic cells, TUNEL assay was carried out in HCT116 wt and p53−/− cells transfected with FITC tagged peptides. Percentage of apoptotic cells was evaluated specifically among the transfected cells (green population).
as §1

HCT116 p53−/− cells = test: Cell death by cytofluorimetric analysis (Propidium Iodide) of cells transfected with FITC tagged peptides; format: cell-based; details: HCT116 p53−/− compared with wt
Procedure: (§2) Cytofluorimetric analysis was carried out on HCT116 wt and p53−/− cells transfected with FITC tagged peptides and stained with Propidium Iodide (PI). Percentage of dead cells was evaluated specifically among the transfected cells (green population).
(§3) Cytofluorimetric analysis was performed on HCT116 wt and p53−/− cells transfected with FITC tagged peptides and stained with Propidium Iodide (PI). Percentage of dead cells was evaluated specifically among the transfected cells (green population).
(§4) It has been investigated whether peptides were able to enter the cell simply by addition thereof at given concentration (5 μM) to cell culture medium and analyzing for the presence thereof by confocal and fluorescence microscopy, each peptide being labeled with green fluorophore (FAM). It has been observed that peptides were detected in cells only after transfection by liposomes. Successively, the ability of peptides to disrupt the binding by MDM4 or MDM2 immunoprecipitation after peptide transfection in HCT116 cancer cell line, and detection of presence of corresponding partner in immunocomplex by western blot assay have been evaluated. Two HCT116 wild type and HCT116 p53−/− syngeneic cell lines have been used in order to understand also observed effect dependence on the presence of p53.

HCT116 wt cells = test: as above; format: cell-based; details: for induction of apoptotic response / cellular apoptosis: HCT116 cells transfected with peptide
Procedure: as §2, §3, §4

p53/MDM4 binding = molecular target: T2, p53/MDM4 binding (Homo sapiens, UniProt O15151); test: Immunoprecipitation / western blot of p53 binding to MDM4 after peptide transfection in HCT116 cells; format: cell-based
T2 construct: MDM4 or MDM2 immunoprecipitation after peptide transfection in HCT116 cancer cell line; endogenous in cells; host or cells: HCT116 wt (p53+/+) colon carcinoma cells
T2 sequence (O15151 whole entry): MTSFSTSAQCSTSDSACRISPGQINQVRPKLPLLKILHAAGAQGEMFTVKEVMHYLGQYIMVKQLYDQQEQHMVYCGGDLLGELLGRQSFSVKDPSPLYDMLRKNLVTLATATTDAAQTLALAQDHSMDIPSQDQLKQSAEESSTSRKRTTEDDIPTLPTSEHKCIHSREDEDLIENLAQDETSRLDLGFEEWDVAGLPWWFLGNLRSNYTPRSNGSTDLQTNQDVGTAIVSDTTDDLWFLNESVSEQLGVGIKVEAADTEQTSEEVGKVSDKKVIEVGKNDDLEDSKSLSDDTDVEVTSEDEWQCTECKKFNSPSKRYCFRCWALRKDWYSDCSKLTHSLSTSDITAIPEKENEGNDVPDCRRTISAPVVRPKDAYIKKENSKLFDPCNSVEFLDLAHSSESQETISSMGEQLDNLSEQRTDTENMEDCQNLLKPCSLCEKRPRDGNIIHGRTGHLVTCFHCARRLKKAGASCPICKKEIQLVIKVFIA
T2 sequence (P04637 whole entry partner): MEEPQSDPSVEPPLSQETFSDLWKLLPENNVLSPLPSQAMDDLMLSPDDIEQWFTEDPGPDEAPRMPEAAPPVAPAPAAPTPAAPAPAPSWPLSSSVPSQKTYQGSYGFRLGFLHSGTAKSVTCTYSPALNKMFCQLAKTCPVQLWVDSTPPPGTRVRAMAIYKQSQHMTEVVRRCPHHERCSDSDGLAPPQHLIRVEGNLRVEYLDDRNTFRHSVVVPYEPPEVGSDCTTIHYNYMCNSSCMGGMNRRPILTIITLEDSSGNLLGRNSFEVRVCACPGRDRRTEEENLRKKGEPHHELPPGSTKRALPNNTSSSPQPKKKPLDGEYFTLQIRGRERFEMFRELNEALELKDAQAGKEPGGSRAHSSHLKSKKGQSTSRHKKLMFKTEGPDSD
Procedure: Cells have been lysed using Saito lysis modified reagent (50 mM Tris-HCl, pH 7.4, 0.15 M NaCl, 0.5% Triton-X100, 5 mM EDTA). For p53 immunoprecipitation and BCL2 and MDM4 analysis EBC modified solution has been used (50 mM Tris-HCl, pH 7.4, 0.12 M NaCl, 0.4% NP-40, 1 mM EDTA, 1 Mm β-mercaptoethanol).
400 μg of total protein extract has been incubated with protein G (Invitrogen) for 2 hours under stirring at 4° C. in order not specific binding of proteins with said substrate can occur. Afterwards the cellular extract has been centrifuged, not specific complexes removed with precipitate and supernatant has been incubated for 16 hours with specific antibody. Successively, protein G has been added and incubated for 2 hour at 4° C. […]
as §4, with “Two HCT116 wild type and HCT116 p53−/− syngeneic cell lines have been used in order to understand also observed effect dependence on the presence of p53.” left out

MDM4/MDM2 complex = molecular target: T3, MDM4/MDM2 complex (Homo sapiens, UniProt O15151+Q00987); test: Immunoprecipitation / western blot of MDM4/MDM2 complex after peptide transfection in HCT116 cells; format: cell-based; details: HCT116 wild type and p53−/−
T3 construct: immunoprecipitation of MDM4 has been carried out on cell lysates; endogenous in cells; host or cells: HCT116 wt and HCT116 p53-/- colon carcinoma cells
T3 sequence (O15151 whole entry): as the sequence (O15151 whole entry) above
T3 sequence (Q00987 whole entry): as the sequence (Q00987 whole entry) above
Text: Transient transfection of peptides has been carried out in HCT116 wt and p53−/− colon carcinoma cell lines and the immunoprecipitation of MDM4 has been carried out on cell lysates in order to detect the presence of MDM2 within the immunocomplex, by western blot analysis.
Transient transfection of peptides has been carried out in HCT116 wt and p53−/− colon carcinoma cell lines and the immunoprecipitation of MDM4 has been performed on cell lysates in order to detect the presence of MDM2 within the immunocomplex by western blot analysis.
Cells have been lysed using Saito lysis modified reagent (50 mM Tris-HCl, pH 7.4, 0.15 M NaCl, 0.5% Triton-X100, 5 mM EDTA). […]
as §4, with “Two HCT116 wild type and HCT116 p53−/− syngeneic cell lines have been used in order to understand also observed effect dependence on the presence of p53.” left out

Row | Substance | inhibition of ubiquitination of p53 (recombinant GST-MDM2) | induction of apoptosis (TUNEL) [1] | induced death in p53 lacking versus p53 harboring cells (HCT116 p53−/− cells) | induction of apoptotic response / cellular apoptosis (HCT116 wt cells) | effect on binding of p53 to MDM4 (p53/MDM4 binding) | ability to dissociate MDM4/MDM2 complex (MDM4/MDM2 complex) | cell death response in comparison to the control Scramble peptide (HCT116 wt cells; HCT116 p53+/+ cells)
1 | AIKIFVKVLEIQ (peptide composed with the same aminoacids of SEQ ID NO3 but arranged in different order) [Peptide SC3B] | ineffective | – | – | – | – | – | –
2 | FITC-Ahx-KEIQLVIKVFIA-CONH2 (HELM PEPTIDE1{[O=C1OC2(c3ccc(O)cc3Oc3cc(O)ccc32)c2ccc(NC(=S)[*:2])cc21].[O=C(CCCCCN[*:1])[*:2]].K.E.I.Q.L.V.I.K.V.F.I.A.[am]}$$$$V2.0; SMILES CC[C@H](C)[C@H](NC(=O)[C@H](Cc1ccccc1)NC(=O)[C@@H](NC(=O)[C@H](CCCCN)NC(=O)[C@@H](NC(=O)[C@@H](NC(=O)[C@H](CC(C)C)NC(=O)[C@H](CCC(N)=O)NC(=O)[C@@H](NC(=O)[C@H](CCC(=O)O)NC(=O)[C@H](CCCCN)NC(=O)CCCCCNC(=S)Nc1ccc2c(c1)C(=O)OC21c2ccc(O)cc2Oc2cc(O)ccc21)[C@@H](C)CC)C(C)C)[C@@H](C)CC)C(C)C)C(=O)N[C@@H](C)C(N)=O) [Peptide 3, FITC-Ahx tagged, C-terminal amide] | inhibit the ubiquitinatin activity of MDM2 towards p53 | induce apoptosis | meaningfully lower in p53 lacking than harboring cells | highly effective in inducing cellular apoptosis | does not dissociate p53 from MDM4 | highly effective in dissociating said two molecules | –
3 | KEIQLVIKVAEA (MDM4 sequence of the interaction domain between MDM4 and MDM2 from aa 479 to aa 490 of MDM4 in which FI in positions 10 and 11 of said sequence has been substituted with AE) [Peptide 3D, reference compound] | completely ineffective | completely ineffective | – | – | – | – | –
4 | VQEAFKLIKIVI (peptide composed with the same aminoacids of SEQ ID NO3 but arranged in different order) [Peptide SC3A] | ineffective | – | – | – | – | – | –
5 | {FITC-Ahx}-ESSLPLNAIEPS-NH2 [Peptide 1] | – | – | – | induce a significant apoptotic response | able to preserve the binding of p53 to MDM4 | suitable to dissociate said two proteins | significantly higher in comparison to the control Scramble peptide
